Data taken from paper PMC6407917, “Identification of GSK3186899/DDD853651 as a Preclinical Development Candidate for the Treatment of Visceral Leishmaniasis” (Journal of Medicinal Chemistry, 2018).

Legend:
Assay in all cases: biochemical
Parameters in all cases: species or system HEK293/K-562/placenta mixed human extract; Kinobeads chemoproteomic competition binding, quantified by TMT LC-MS/MS, dose response up to 20 uM
PIM2 = PIM2 (Homo sapiens, UniProt Q9P1W9)
EPHA4 = EPHA4 (Homo sapiens, UniProt P54764)
PRKD3 = PRKD3 (Homo sapiens, UniProt O94806)
STK39 = STK39 (Homo sapiens, UniProt Q9UEW8)
CDC42BPB = CDC42BPB (Homo sapiens, UniProt Q9Y5S2)
STK17B = STK17B (Homo sapiens, UniProt O94768)
Chain of STK17B (O94768 whole entry): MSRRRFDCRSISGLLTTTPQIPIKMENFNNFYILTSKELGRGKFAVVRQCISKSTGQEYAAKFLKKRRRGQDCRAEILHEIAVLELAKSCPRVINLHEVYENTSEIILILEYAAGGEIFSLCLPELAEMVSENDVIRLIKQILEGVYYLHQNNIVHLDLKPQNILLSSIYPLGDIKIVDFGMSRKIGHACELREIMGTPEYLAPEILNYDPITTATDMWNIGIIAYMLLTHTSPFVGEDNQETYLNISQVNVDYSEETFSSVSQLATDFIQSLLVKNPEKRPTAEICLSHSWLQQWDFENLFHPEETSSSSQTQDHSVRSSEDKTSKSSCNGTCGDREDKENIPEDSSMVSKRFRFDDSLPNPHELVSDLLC

YES1 = YES1 (Homo sapiens, UniProt P07947)
PLK4 = PLK4 (Homo sapiens, UniProt O00444)
EPHA1 = EPHA1 (Homo sapiens, UniProt P21709)
Chain of EPHA1 (P21709 whole entry): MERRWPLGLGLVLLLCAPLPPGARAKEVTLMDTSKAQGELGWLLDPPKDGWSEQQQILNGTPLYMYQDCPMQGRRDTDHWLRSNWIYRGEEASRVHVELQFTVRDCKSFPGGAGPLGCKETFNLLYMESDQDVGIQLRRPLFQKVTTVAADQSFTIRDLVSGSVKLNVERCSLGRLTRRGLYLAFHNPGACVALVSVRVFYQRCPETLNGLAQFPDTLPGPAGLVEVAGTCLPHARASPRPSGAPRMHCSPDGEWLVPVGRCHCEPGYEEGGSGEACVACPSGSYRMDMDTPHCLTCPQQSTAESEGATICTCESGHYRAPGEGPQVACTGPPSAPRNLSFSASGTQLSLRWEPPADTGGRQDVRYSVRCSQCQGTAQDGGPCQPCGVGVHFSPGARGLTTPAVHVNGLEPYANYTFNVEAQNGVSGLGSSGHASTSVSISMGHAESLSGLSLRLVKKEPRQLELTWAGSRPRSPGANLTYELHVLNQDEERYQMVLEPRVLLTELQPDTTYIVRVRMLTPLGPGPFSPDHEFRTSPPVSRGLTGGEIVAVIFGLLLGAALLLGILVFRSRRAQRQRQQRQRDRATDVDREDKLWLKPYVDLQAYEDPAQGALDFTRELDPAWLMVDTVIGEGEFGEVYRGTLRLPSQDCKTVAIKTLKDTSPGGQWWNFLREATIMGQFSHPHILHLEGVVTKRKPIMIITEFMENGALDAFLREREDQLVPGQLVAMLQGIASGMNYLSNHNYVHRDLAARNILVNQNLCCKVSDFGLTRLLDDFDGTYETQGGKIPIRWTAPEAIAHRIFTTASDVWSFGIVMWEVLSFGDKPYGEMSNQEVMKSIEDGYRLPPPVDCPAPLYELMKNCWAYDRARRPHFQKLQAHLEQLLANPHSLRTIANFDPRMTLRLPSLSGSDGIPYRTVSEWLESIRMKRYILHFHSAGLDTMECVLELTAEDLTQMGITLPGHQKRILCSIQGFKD

PFKL = PFKL (Homo sapiens, UniProt P17858)
FYN = FYN (Homo sapiens, UniProt P06241)
TGFBR1 = TGFBR1 (Homo sapiens, UniProt P36897)
Chain of TGFBR1 (P36897 whole entry): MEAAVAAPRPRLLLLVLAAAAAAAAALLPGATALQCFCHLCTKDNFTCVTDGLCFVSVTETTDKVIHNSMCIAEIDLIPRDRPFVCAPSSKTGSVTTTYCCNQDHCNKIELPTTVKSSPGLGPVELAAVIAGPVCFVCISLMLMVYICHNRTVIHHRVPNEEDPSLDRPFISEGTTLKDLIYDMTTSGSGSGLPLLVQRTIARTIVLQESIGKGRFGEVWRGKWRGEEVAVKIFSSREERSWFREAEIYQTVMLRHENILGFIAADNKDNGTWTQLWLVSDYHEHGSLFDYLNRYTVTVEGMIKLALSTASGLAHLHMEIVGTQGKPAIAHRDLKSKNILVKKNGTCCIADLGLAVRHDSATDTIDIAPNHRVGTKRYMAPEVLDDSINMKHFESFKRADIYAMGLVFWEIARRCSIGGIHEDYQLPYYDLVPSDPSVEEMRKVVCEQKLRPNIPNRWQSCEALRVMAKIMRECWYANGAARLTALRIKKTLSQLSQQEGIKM

PRKCZ = PRKCZ (Homo sapiens, UniProt Q05513)
Chain of PRKCZ (Q05513 whole entry): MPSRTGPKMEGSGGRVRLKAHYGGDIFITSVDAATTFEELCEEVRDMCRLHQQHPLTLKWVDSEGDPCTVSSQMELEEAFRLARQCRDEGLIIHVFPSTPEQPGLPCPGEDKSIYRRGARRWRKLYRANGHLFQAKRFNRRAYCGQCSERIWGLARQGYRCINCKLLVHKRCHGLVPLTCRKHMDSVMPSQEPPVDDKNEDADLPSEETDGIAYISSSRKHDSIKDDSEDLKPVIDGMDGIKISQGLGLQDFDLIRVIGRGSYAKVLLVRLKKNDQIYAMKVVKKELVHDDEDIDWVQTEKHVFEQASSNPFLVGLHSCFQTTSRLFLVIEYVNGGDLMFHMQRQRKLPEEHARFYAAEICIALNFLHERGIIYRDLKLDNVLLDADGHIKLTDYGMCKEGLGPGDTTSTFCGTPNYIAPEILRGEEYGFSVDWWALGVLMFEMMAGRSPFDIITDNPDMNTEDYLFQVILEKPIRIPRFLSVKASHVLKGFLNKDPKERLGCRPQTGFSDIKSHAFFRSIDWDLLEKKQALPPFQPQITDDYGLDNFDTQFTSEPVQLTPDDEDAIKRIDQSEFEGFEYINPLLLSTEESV

WNK4 = WNK4 (Homo sapiens, UniProt Q96J92)
IKBKE = IKBKE (Homo sapiens, UniProt Q14164)
MARK1 = MARK1 (Homo sapiens, UniProt Q9P0L2)
TYK2 = TYK2 (Homo sapiens, UniProt P29597)
Chain of TYK2 (P29597 whole entry): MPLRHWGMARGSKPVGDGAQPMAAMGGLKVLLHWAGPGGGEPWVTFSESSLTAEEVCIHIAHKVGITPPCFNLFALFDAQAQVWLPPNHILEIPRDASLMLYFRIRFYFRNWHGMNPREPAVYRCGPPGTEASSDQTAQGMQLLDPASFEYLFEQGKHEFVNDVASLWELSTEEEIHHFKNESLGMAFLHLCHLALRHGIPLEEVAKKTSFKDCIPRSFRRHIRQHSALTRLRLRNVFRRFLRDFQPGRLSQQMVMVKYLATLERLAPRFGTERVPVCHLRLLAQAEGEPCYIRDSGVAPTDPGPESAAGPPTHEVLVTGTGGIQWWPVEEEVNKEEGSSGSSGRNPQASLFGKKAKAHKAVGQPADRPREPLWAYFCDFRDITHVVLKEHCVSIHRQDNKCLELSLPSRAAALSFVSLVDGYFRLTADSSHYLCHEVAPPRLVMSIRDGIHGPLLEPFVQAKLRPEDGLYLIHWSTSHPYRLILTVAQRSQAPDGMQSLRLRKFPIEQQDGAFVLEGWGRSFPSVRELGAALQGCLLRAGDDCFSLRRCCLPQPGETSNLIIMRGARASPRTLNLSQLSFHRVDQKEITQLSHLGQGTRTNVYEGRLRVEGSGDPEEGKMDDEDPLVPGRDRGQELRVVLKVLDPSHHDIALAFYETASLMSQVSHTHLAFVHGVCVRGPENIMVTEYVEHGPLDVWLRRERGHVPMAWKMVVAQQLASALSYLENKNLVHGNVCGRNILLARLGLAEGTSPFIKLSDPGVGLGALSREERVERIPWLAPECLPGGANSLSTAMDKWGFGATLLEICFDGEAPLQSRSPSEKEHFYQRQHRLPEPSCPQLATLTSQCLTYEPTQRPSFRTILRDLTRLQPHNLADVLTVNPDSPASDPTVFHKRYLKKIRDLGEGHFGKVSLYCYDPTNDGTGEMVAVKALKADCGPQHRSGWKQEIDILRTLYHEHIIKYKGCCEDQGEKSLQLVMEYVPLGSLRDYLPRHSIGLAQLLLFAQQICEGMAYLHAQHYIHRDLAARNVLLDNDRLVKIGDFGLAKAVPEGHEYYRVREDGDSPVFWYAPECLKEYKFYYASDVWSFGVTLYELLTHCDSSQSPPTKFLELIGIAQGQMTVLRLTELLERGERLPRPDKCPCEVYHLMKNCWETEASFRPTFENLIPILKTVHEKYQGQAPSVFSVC

IKBKB = IKBKB (Homo sapiens, UniProt O14920)
Chain of IKBKB (O14920 whole entry): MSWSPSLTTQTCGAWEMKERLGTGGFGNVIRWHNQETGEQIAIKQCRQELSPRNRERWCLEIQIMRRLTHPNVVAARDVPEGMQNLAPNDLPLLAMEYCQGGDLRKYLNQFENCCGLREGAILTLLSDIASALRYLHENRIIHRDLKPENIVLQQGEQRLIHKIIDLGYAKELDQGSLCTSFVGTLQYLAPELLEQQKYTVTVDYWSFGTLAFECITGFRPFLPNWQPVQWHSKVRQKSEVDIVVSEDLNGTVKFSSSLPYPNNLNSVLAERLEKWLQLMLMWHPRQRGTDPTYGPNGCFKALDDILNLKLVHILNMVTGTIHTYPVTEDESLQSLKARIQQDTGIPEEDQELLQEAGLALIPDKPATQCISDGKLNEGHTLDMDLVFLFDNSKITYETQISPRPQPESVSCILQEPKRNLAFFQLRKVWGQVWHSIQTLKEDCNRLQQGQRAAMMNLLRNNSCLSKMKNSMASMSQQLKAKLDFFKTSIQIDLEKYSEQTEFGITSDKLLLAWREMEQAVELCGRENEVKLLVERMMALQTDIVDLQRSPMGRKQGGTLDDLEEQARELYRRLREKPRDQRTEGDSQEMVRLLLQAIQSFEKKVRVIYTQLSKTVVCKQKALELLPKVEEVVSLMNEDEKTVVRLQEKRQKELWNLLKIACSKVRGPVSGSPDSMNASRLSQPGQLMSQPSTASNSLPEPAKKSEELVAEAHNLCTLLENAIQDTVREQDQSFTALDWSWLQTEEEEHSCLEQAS

PKMYT1 = PKMYT1 (Homo sapiens, UniProt Q99640)
FN3K = FN3K (Homo sapiens, UniProt Q9H479)
AKT1 = AKT1 (Homo sapiens, UniProt P31749)
Chain of AKT1 (P31749 whole entry): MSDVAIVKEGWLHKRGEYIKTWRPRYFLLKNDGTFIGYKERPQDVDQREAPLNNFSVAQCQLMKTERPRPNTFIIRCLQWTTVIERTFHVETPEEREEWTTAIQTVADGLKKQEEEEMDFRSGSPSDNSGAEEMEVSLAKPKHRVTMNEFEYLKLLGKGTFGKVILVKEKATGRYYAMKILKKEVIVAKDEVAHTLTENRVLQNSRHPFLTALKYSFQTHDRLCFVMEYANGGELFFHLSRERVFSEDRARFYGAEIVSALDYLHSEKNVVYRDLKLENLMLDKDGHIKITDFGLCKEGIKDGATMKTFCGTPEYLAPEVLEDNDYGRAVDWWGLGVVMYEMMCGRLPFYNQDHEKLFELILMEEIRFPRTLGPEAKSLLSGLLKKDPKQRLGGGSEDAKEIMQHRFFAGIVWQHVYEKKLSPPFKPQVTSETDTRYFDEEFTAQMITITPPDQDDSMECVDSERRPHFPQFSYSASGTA

IC50 (PIM2): ≥ 20 µM
IC50 (EPHA4): ≥ 20 µM
IC50 (PRKD3): ≥ 20 µM
IC50 (STK39): ≥ 20 µM
IC50 (CDC42BPB): ≥ 20 µM
IC50 (STK17B): ≥ 20 µM
IC50 (YES1): ≥ 20 µM
IC50 (PLK4): ≥ 20 µM
IC50 (EPHA1): ≥ 20 µM
IC50 (PFKL): ≥ 20 µM
IC50 (FYN): ≥ 20 µM
IC50 (TGFBR1): ≥ 20 µM
IC50 (PRKCZ): ≥ 20 µM
IC50 (WNK4): ≥ 20 µM
IC50 (IKBKE): ≥ 20 µM
IC50 (MARK1): ≥ 20 µM
IC50 (TYK2): ≥ 20 µM
IC50 (IKBKB): ≥ 20 µM
IC50 (PKMYT1): ≥ 20 µM
IC50 (FN3K): ≥ 20 µM
IC50 (AKT1): ≥ 20 µM
Structure (SMILES): COc1ccccc1-c1n[nH]c2nc(N[C@H]3CC[C@H](NS(=O)(=O)CCC(F)(F)F)CC3)nc(OC)c12 [compound 31, 3,3,3-Trifluoro-N-(trans-4-((4-methoxy-3-(2-methoxyphenyl)-1H-pyrazolo[3,4-d]pyrimidin-6-yl)amino)cyclohexyl)propane-1-sulfonamide]
